Experimental data from patent US20230272055A1, “ANTI-MUTANT CALRETICULIN (CALR) ANTIBODIES AND USES THEREOF” (Incyte Corporation, priority 2021, published 2023).

Tested on: Ba/F3-TPOR/mutCALR type 1 engineered cells
Experiment: Cell proliferation with antibody and/or ruxolitinib, mutCALR Type 1
Assay type: cell-based
Details: ruxolitinib alone at 50 nM; 72 hours; dotted line of FIG. 10 (Type 1 and Type 2 panels); read-out: inhibition of the level of oncogenic cell proliferation
Experimental: To test the ability of anti-mutCALR antibodies to potentiate the therapeutic response of the JAK1/2 inhibitor ruxolitinib, Ba/F3 cells were engineered to express MPL+mutCALR Type 1 (52 bp deletion) or MPL+mutCALR Type 2 (5 bp insertion) as described above. Cells were plated at 5,000 cells per well in RPMI 1640+2% FBS, treated with 50 nM of ruxolitinib and/or anti-mutCALR antibodies. Cells were incubated for 72 hours followed by assessment of cell viability using the CellTiter-Glo Luminescent Cell Viability Assay (Promega, Madison, Wis.) and Top Count (Perkin Elmer, Boston, Mass.) or Pherastar (BMG Labtech, Ortenberg, Germany) for luminescence quantification. Ruxolitinib used at a concentration of 50 nM inhibited the level of oncogenic cell proliferation by approximately 20% (dotted line).

N#CC[C@H](C1CCCC1)n1cc(-c2ncnc3[nH]ccc23)cn1 [Ruxolitinib, ruxolitinib, reference compound]
inhibition at 0.05 µM: ~20%
